± gives the expanded uncertainty stated by the source.
Assay: activity coefficient (dimensionless); of the first substance listed, at infinite dilution; xn = mol fraction of the nth substance listed
Settings: Liquid, Chromatography, x1 = 0

## C=CCCCCCC [oct-1-ene] + CCCC[N+](C)(C)C.O=S(=O)([N-]S(=O)(=O)C(F)(F)F)C(F)(F)F
306.75 K
  activity coefficient: 22.9 ± 1.6
312.98 K
  activity coefficient: 22 ± 1.5
322.55 K
  activity coefficient: 20.4 ± 1.4
333.25 K
  activity coefficient: 19 ± 1.3
343.65 K
  activity coefficient: 17.2 ± 1.2
354.05 K
  activity coefficient: 16.2 ± 1.1
364.55 K
  activity coefficient: 15.1 ± 1

## CCc1ccccc1 [ethylbenzene] + CCCC[N+](C)(C)C.O=S(=O)([N-]S(=O)(=O)C(F)(F)F)C(F)(F)F
322.85 K
  activity coefficient: 2.79 ± 0.19
333.25 K
  activity coefficient: 2.76 ± 0.19
343.75 K
  activity coefficient: 2.65 ± 0.18
354.15 K
  activity coefficient: 2.6 ± 0.18

## CCC(C)(C)O [2-methylbutan-2-ol] + CCCC[N+](C)(C)C.O=S(=O)([N-]S(=O)(=O)C(F)(F)F)C(F)(F)F
302.55 K
  activity coefficient: 2.53 ± 0.17
312.15 K
  activity coefficient: 2.32 ± 0.16
333.25 K
  activity coefficient: 1.94 ± 0.13
343.65 K
  activity coefficient: 1.8 ± 0.12
354.05 K
  activity coefficient: 1.67 ± 0.11

## C=CCCCCCCCCC [1-undecene] + CCCC[N+](C)(C)C.O=S(=O)([N-]S(=O)(=O)C(F)(F)F)C(F)(F)F
322.55 K
  activity coefficient: 62.7 ± 4.3
333.25 K
  activity coefficient: 56.1 ± 3.8
343.65 K
  activity coefficient: 50.7 ± 3.5
354.05 K
  activity coefficient: 45.8 ± 3.1
364.55 K
  activity coefficient: 42.6 ± 2.9
374.95 K
  activity coefficient: 37.6 ± 2.6

## CCCO [propan-1-ol] + CCCC[N+](C)(C)C.O=S(=O)([N-]S(=O)(=O)C(F)(F)F)C(F)(F)F
301.75 K
  activity coefficient: 2.76 ± 0.19
312.15 K
  activity coefficient: 2.43 ± 0.17
322.85 K
  activity coefficient: 2.14 ± 0.15
333.35 K
  activity coefficient: 1.9 ± 0.13

## CCCCCCC [heptane] + CCCC[N+](C)(C)C.O=S(=O)([N-]S(=O)(=O)C(F)(F)F)C(F)(F)F
301.62 K
  activity coefficient: 30.2 ± 2.1
312.15 K
  activity coefficient: 27.7 ± 1.9
322.75 K
  activity coefficient: 25.6 ± 1.8
333.25 K
  activity coefficient: 23.4 ± 1.6

## CCCCCCCCC [nonane] + CCCC[N+](C)(C)C.O=S(=O)([N-]S(=O)(=O)C(F)(F)F)C(F)(F)F
301.65 K
  activity coefficient: 67.5 ± 4.6
312.15 K
  activity coefficient: 59.8 ± 4.1
322.75 K
  activity coefficient: 52.6 ± 3.6
333.25 K
  activity coefficient: 47.3 ± 3.2
343.65 K
  activity coefficient: 43.2 ± 3
354.05 K
  activity coefficient: 39 ± 2.7
364.55 K
  activity coefficient: 36 ± 2.5
374.95 K
  activity coefficient: 32.3 ± 2.2

## CCCCCc1ccccc1 [pentylbenzene] + CCCC[N+](C)(C)C.O=S(=O)([N-]S(=O)(=O)C(F)(F)F)C(F)(F)F
354.05 K
  activity coefficient: 7.92 ± 0.54
364.45 K
  activity coefficient: 7.69 ± 0.52
374.95 K
  activity coefficient: 7.36 ± 0.5
385.45 K
  activity coefficient: 7.07 ± 0.48

## CCCCCCCCCCC [undecane] + CCCC[N+](C)(C)C.O=S(=O)([N-]S(=O)(=O)C(F)(F)F)C(F)(F)F
333.25 K
  activity coefficient: 94.4 ± 6.5
343.65 K
  activity coefficient: 83.9 ± 5.8
354.05 K
  activity coefficient: 73.3 ± 5
364.55 K
  activity coefficient: 66.3 ± 4.5
374.95 K
  activity coefficient: 56 ± 3.8

## CC(C)(C)O [2-methylpropan-2-ol] + CCCC[N+](C)(C)C.O=S(=O)([N-]S(=O)(=O)C(F)(F)F)C(F)(F)F
302.55 K
  activity coefficient: 2.24 ± 0.15
312.15 K
  activity coefficient: 2.01 ± 0.14
322.85 K
  activity coefficient: 1.79 ± 0.12
333.25 K
  activity coefficient: 1.61 ± 0.11
343.65 K
  activity coefficient: 1.47 ± 0.1
354.05 K
  activity coefficient: 1.34 ± 0.09

## CCCCC=O [pentanal] + CCCC[N+](C)(C)C.O=S(=O)([N-]S(=O)(=O)C(F)(F)F)C(F)(F)F
301.75 K
  activity coefficient: 1.71 ± 0.11
312.25 K
  activity coefficient: 1.65 ± 0.11
322.75 K
  activity coefficient: 1.62 ± 0.11
333.25 K
  activity coefficient: 1.57 ± 0.1
343.55 K
  activity coefficient: 1.5 ± 0.1
354.15 K
  activity coefficient: 1.46 ± 0.1

## CC#N [acetonitrile] + CCCC[N+](C)(C)C.O=S(=O)([N-]S(=O)(=O)C(F)(F)F)C(F)(F)F
301.75 K
  activity coefficient: 0.52 ± 0.04
312.45 K
  activity coefficient: 0.5 ± 0.04
322.95 K
  activity coefficient: 0.49 ± 0.04
333.35 K
  activity coefficient: 0.47 ± 0.04
343.75 K
  activity coefficient: 0.46 ± 0.04

## C1=CCCCC1 [cyclohexene] + CCCC[N+](C)(C)C.O=S(=O)([N-]S(=O)(=O)C(F)(F)F)C(F)(F)F
312.05 K
  activity coefficient: 6.87 ± 0.47
322.55 K
  activity coefficient: 6.45 ± 0.44
333.25 K
  activity coefficient: 5.94 ± 0.4
343.65 K
  activity coefficient: 5.5 ± 0.37
354.15 K
  activity coefficient: 5.31 ± 0.36

## ClC(Cl)Cl [trichloromethane] + CCCC[N+](C)(C)C.O=S(=O)([N-]S(=O)(=O)C(F)(F)F)C(F)(F)F
301.75 K
  activity coefficient: 1.03 ± 0.06
312.15 K
  activity coefficient: 1.04 ± 0.07
333.25 K
  activity coefficient: 1.04 ± 0.07

## CCCCCCCC=O [octanal] + CCCC[N+](C)(C)C.O=S(=O)([N-]S(=O)(=O)C(F)(F)F)C(F)(F)F
364.64 K
  activity coefficient: 3.53 ± 0.24
374.95 K
  activity coefficient: 3.48 ± 0.24
385.45 K
  activity coefficient: 3.44 ± 0.23
395.95 K
  activity coefficient: 3.37 ± 0.23

## CCO [ethanol] + CCCC[N+](C)(C)C.O=S(=O)([N-]S(=O)(=O)C(F)(F)F)C(F)(F)F
312.25 K
  activity coefficient: 1.94 ± 0.13
322.85 K
  activity coefficient: 1.73 ± 0.12
333.25 K
  activity coefficient: 1.57 ± 0.1
343.65 K
  activity coefficient: 1.41 ± 0.09

## CCCCCCC=O [heptanal] + CCCC[N+](C)(C)C.O=S(=O)([N-]S(=O)(=O)C(F)(F)F)C(F)(F)F
354.15 K
  activity coefficient: 1.84 ± 0.12
364.65 K
  activity coefficient: 1.73 ± 0.12
374.95 K
  activity coefficient: 1.6 ± 0.11
385.45 K
  activity coefficient: 1.48 ± 0.1
395.95 K
  activity coefficient: 1.36 ± 0.09

## CCCCCCCCCC [decane] + CCCC[N+](C)(C)C.O=S(=O)([N-]S(=O)(=O)C(F)(F)F)C(F)(F)F
302.15 K
  activity coefficient: 97.8 ± 6.7
312.15 K
  activity coefficient: 87.5 ± 6
322.65 K
  activity coefficient: 77.5 ± 5.3
333.25 K
  activity coefficient: 67.2 ± 4.6
343.65 K
  activity coefficient: 59.9 ± 4.1
354.05 K
  activity coefficient: 53.7 ± 3.7

## CCCCC [pentane] + CCCC[N+](C)(C)C.O=S(=O)([N-]S(=O)(=O)C(F)(F)F)C(F)(F)F
301.85 K
  activity coefficient: 13.7 ± 0.93
322.85 K
  activity coefficient: 13.9 ± 0.95

## CCCCCC=O [hexanal] + CCCC[N+](C)(C)C.O=S(=O)([N-]S(=O)(=O)C(F)(F)F)C(F)(F)F
322.75 K
  activity coefficient: 1.92 ± 0.13
333.25 K
  activity coefficient: 1.9 ± 0.13
343.55 K
  activity coefficient: 1.88 ± 0.13
354.15 K
  activity coefficient: 1.85 ± 0.12
364.65 K
  activity coefficient: 1.84 ± 0.12

## C=CCCCCCCC [1-nonene] + CCCC[N+](C)(C)C.O=S(=O)([N-]S(=O)(=O)C(F)(F)F)C(F)(F)F
306.65 K
  activity coefficient: 34.1 ± 2.3
311.98 K
  activity coefficient: 32.6 ± 2.2
322.55 K
  activity coefficient: 29.9 ± 2
333.25 K
  activity coefficient: 26.7 ± 1.8
343.65 K
  activity coefficient: 24.5 ± 1.7
354.05 K
  activity coefficient: 22.3 ± 1.5
364.55 K
  activity coefficient: 20.9 ± 1.4

## C1CCCCC1 [cyclohexane] + CCCC[N+](C)(C)C.O=S(=O)([N-]S(=O)(=O)C(F)(F)F)C(F)(F)F
300.95 K
  activity coefficient: 4.15 ± 0.28
312.25 K
  activity coefficient: 3.84 ± 0.26
322.85 K
  activity coefficient: 3.6 ± 0.25
333.35 K
  activity coefficient: 3.37 ± 0.23

## CO [methanol] + CCCC[N+](C)(C)C.O=S(=O)([N-]S(=O)(=O)C(F)(F)F)C(F)(F)F
303.95 K
  activity coefficient: 1.55 ± 0.1
312.05 K
  activity coefficient: 1.42 ± 0.09
333.25 K
  activity coefficient: 1.15 ± 0.07
343.65 K
  activity coefficient: 1.02 ± 0.06

## CCCC=O [butanal] + CCCC[N+](C)(C)C.O=S(=O)([N-]S(=O)(=O)C(F)(F)F)C(F)(F)F
301.75 K
  activity coefficient: 0.84 ± 0.05
312.25 K
  activity coefficient: 0.8 ± 0.05
322.75 K
  activity coefficient: 0.79 ± 0.05
343.55 K
  activity coefficient: 0.77 ± 0.05
354.15 K
  activity coefficient: 0.76 ± 0.05

## OC1CCCCC1 [cyclohexanol] + CCCC[N+](C)(C)C.O=S(=O)([N-]S(=O)(=O)C(F)(F)F)C(F)(F)F
343.65 K
  activity coefficient: 3.52 ± 0.24
354.05 K
  activity coefficient: 2.89 ± 0.2
364.45 K
  activity coefficient: 2.54 ± 0.17
373.95 K
  activity coefficient: 2.27 ± 0.15
385.55 K
  activity coefficient: 1.95 ± 0.13

## CN1CCCC1=O [N-methylpyrrolidone] + CCCC[N+](C)(C)C.O=S(=O)([N-]S(=O)(=O)C(F)(F)F)C(F)(F)F
312.35 K
  activity coefficient: 112 ± 7.7
322.75 K
  activity coefficient: 81.3 ± 5.6
333.35 K
  activity coefficient: 60.4 ± 4.1
343.75 K
  activity coefficient: 46.1 ± 3.1
354.15 K
  activity coefficient: 36.5 ± 2.5
364.75 K
  activity coefficient: 28 ± 1.9
375.15 K
  activity coefficient: 22.4 ± 1.5

## CC(C)O [propan-2-ol] + CCCC[N+](C)(C)C.O=S(=O)([N-]S(=O)(=O)C(F)(F)F)C(F)(F)F
302.55 K
  activity coefficient: 2.4 ± 0.16
312.15 K
  activity coefficient: 2.14 ± 0.15
322.85 K
  activity coefficient: 1.89 ± 0.13
333.35 K
  activity coefficient: 1.67 ± 0.11
343.65 K
  activity coefficient: 1.53 ± 0.1
354.05 K
  activity coefficient: 1.37 ± 0.09

## CCCCCC [hexane] + CCCC[N+](C)(C)C.O=S(=O)([N-]S(=O)(=O)C(F)(F)F)C(F)(F)F
301.85 K
  activity coefficient: 19.4 ± 1.3
312.35 K
  activity coefficient: 18.1 ± 1.2
322.85 K
  activity coefficient: 17.6 ± 1.2
333.35 K
  activity coefficient: 16.3 ± 1.1

## CCCCc1ccccc1 [butylbenzene] + CCCC[N+](C)(C)C.O=S(=O)([N-]S(=O)(=O)C(F)(F)F)C(F)(F)F
333.25 K
  activity coefficient: 5.77 ± 0.39
343.65 K
  activity coefficient: 5.62 ± 0.38
354.05 K
  activity coefficient: 5.43 ± 0.37
364.45 K
  activity coefficient: 5.31 ± 0.36
374.95 K
  activity coefficient: 5.16 ± 0.35

## Cc1ccccc1 [toluene] + CCCC[N+](C)(C)C.O=S(=O)([N-]S(=O)(=O)C(F)(F)F)C(F)(F)F
322.75 K
  activity coefficient: 1.73 ± 0.12
333.25 K
  activity coefficient: 1.71 ± 0.11
343.65 K
  activity coefficient: 1.7 ± 0.11
364.45 K
  activity coefficient: 1.68 ± 0.11

## CCCCCCCC [octane] + CCCC[N+](C)(C)C.O=S(=O)([N-]S(=O)(=O)C(F)(F)F)C(F)(F)F
301.62 K
  activity coefficient: 45.4 ± 3.1
312.15 K
  activity coefficient: 41 ± 2.8
322.75 K
  activity coefficient: 37.2 ± 2.5
333.25 K
  activity coefficient: 34.1 ± 2.3
